Earlier results on nine molecules are cited in patent US20170262578A1, “SYSTEM, METHOD AND SOFTWARE FOR ANALYSIS OF INTRACELLULAR SIGNALING PATHWAY ACTIVATION USING TRANSCRIPTOMIC DATA” (PATHWAY PHARMACEUTICALS LTD, priority 2015, published 2017).

Data set [1] relates to Metastatic Renal Cell Cancer. The conditions noted are these: for Serious adverse events: 108 from 359 Axitinib / 110 from 355 Sorafenib participants.
Data set [2] has as its system unresectable or metastatic renal cell carcinoma.
The test system of data set [3] is Locally Advanced and/or Metastatic Renal Cell Carcinoma. The conditions noted are these: 68 from 186 Pazopanib / 73 from 177 Sunitinib participants.
In data set [4] the test system is Locally Recurrent or Metastatic Clear-Cell Renal Cell Carcinoma. The conditions noted are these: 74 from 225 participants.
Data set [5] deals with Locally Advanced and/or Metastatic Renal Cell Carcinoma. The conditions noted are these: 230 from 554 Pazopanib / 224 from 548 Sunitinib participants.
Data set [6] shares this test system. The following applies: 76 from 290 participants.
The test system of data set [7] is Metastatic Carcinoma of the Kidney Which Has Progressed on VEGF Receptor Tyrosine Kinase Inhibitor. The following applies: with Best Supportive Care.
Data set [8] has as its system Metastatic or Unresectable Renal Cell Cancer (RCC).
Data set [9] has as its system Unresectable and/or Metastatic Renal Cell Carcinoma.
Data set [10] concerns Renal Cell Carcinoma.
Data set [11] has as its system Unresectable and/or Metastatic Renal Cell Carcinoma. This is another data set of the same source.
The subject of data set [12] is Metastatic Renal Cell Carcinoma (RCC).
In data set [13] the test system is Unresectable and/or Metastatic Renal Cell Cancer.
For data set [14], the system named is Cytokine-Refractory Metastatic Renal Cell Carcinoma.
In data set [15] the test system is Renal Cell Carcinoma. The following applies: 28 from 51 participants.
The test system of data set [16] is Cytokine-Refractory Metastatic Renal Cell Carcinoma. The conditions noted are these: 46 from 106 participants.
Data set [17] concerns Advanced (First-Line) Renal Cell Cancer. The conditions noted are these: 45 of 119 participants.
In data set [18] the test system is Metastatic Renal Cell Cancer.
The test system of data set [19] is Advanced Renal Cell Carcinoma. The following applies: for Median overall response duration: 11 / 19 / 20 participants; for Median progression free survival / Median time to treatment failure: 207 / 209 / 210 participants; for Median overall survival: 207 Interferon-α / 209 Temsirolimus / 210 combination participants; for Clinical benefit (complete, partial response or stable disease) / Complete or partial response: from 207 / 209 / 210 participants.

The mark [20] stands for this setting: first intervention period, 5 / 8 participants.
The mark [21] stands for this setting: first intervention period, from 97 / 92 participants.

Where two headings read alike, the source gives them in different places.

Take `CNC(=O)c1ccccc1Sc1ccc2c(/C=C/c3ccccn3)n[nH]c2c1` [Axitinib]: the Serious adverse events in [1] was 30.08%.

Consider `CN1CC[C@H](c2c(O)cc(O)c3c(=O)cc(-c4ccccc4Cl)oc23)[C@H](O)C1` [Flavopiridol], for which the stable disease in [2] (14 among 34 participants) is on record as 41%. Also, in data set [2] (34 participants), the “CR+PR” value is recorded as 12%, the Median overall survival was 9 months and the “probability of not failing treatment by 6 months” value is 21%. In data set [2] (among 34 participants), the complete response is 1 participants and the partial response was 3 participants. Also, the Toxicity of treatment result in data set [2] (in vivo) is reported as “moderate”.

In the case of `Cc1ccc(Nc2nccc(N(C)c3ccc4c(C)n(C)nc4c3)n2)cc1S(N)(=O)=O` [Pazopanib], the Serious adverse events in data set [3] is 36.56%; in [4] it was 32.89%; in data set [5], 41.52%; in data set [6], 26.21%.

For the molecule `CO[C@H]1C[C@@H]2CC[C@@H](C)[C@@](O)(O2)C(=O)C(=O)N2CCCC[C@H]2C(=O)O[C@H]([C@H](C)C[C@@H]2CC[C@@H](OCCO)[C@H](OC)C2)CC(=O)[C@H](C)/C=C(\C)[C@@H](O)[C@@H](OC)C(=O)[C@H](C)C[C@H](C)/C=C/C=C/C=C/1C` [RAD001, Everolimus], the Serious adverse events in data set [7] (135 from 274 participants) is reported as 49.27%. Besides, in [7] (277 participants), the Median overall survival is recorded as 13.57 months and the “Median progression free survival” value was 4.9 months. Further, the “Complete or partial response” value in data set [7] (from 277 participants) is 1.8%.

With `CNC(=O)c1cc(Oc2ccc(NC(=O)Nc3ccc(Cl)c(C(F)(F)F)c3)c(F)c2)ccn1` [Regorafenib], the “Median overall response duration” value in data set [8] (19 participants) was 428 days. Besides, the “Median duration of stable disease” value in [8] (25 participants) is listed as 119 days. For the same molecule, the Serious adverse events in data set [8] (30 from 49 participants) is recorded as 61.22%. Also, the “Median progression free survival” value in data set [8] (49 participants) is 335 days. In data set [8] (among 48 participants), the partial response is recorded as 39.6% and the stable disease was 41.7%.

Regarding `CNC(=O)c1cc(Oc2ccc(NC(=O)Nc3ccc(Cl)c(C(F)(F)F)c3)cc2)ccn1` [Sorafenib], in [9] (5 participants), the “Median overall response duration” value is 7.4 months. Further, the “Median time to objective response” value in data set [9] (5 participants) is 1.4 months. The Serious adverse events in data set [9] (12 from 39 participants) is 30.77%; in data set [1], 30.99%; in the data set with Renal Cell Carcinoma [10] (34 of 95 participants), 35.79%; in data set [11] (first intervention period, 47 from 97 / 36 from 90 participants), 48.45%; in [11] (second intervention period, 14 from 49 / 30 from 61 participants), 28.57%; in [12] (4 from 47 participants), 8.51%. Besides, the Serious adverse events in data set [13] (154 from 451 participants) is on record as 34.15%. Further, the Median overall survival in data set [9] (39 participants) is given as 7.8 months; in [12] (47 participants), 16 months; in [13] (451 participants), 542 days. In addition, the “Median progression free survival” value in [9] (39 participants) is 5.5 months; in data set [1] (361 Axitinib / 362 Sorafenib participants), 4.7 months; with Renal Cell Carcinoma [10] (94 participants), 386 days; in data set [13] (384 participants) it was 167 days. The “Median time to progression” value is 5.5 months in [9] (39 participants) and 4.4 months in data set [12] (47 participants). Moreover, the partial response in data set [9] (from 39 participants) was 5 participants; in the data set with Renal Cell Carcinoma [10] (among 94 participants), 25 participants; in [13] (from 335 participants) it was 2.1%. Besides, the progressive disease in data set [9] (from 39 participants) was 6 participants. In addition, the stable disease in data set [9] (from 39 participants) is recorded as 27 participants; in the data set on Renal Cell Carcinoma [10] (among 94 participants), 64 participants; in data set [13] (from 335 participants) it was 77.9%. The “Median duration of overall response” value with Renal Cell Carcinoma [10] (94 participants) is on record as 419 days. The “Median time to response” value in the data set with Renal Cell Carcinoma [10] (94 participants) is reported as 84 days. Further, the “Number of participants who died” value in the data set with Renal Cell Carcinoma [10] (from start of treatment of the first subject until 45 months later, from 94 participants) is recorded as 43 participants. The “Median duration of response according to the Independent Radiological Review” value in data set [11] (setting [20]) is listed as 7.5 months. For the same molecule, the “Median time to response according to the Independent Radiological Review” value in data set [11] (setting [20]) was 1.8 months. The “partial response (Independent Central Review)” value in data set [11] (setting [21]) is listed as 5 participants. Moreover, the “stable disease (Independent Central Review)” value in [11] (setting [21]) was 72 participants. In data set [11] (second intervention period), the “Median progression-free survival according to the Investigator Assessment” value is on record as 4.5 months. Besides, the “stable disease (Investigator Assessment)” value in data set [11] (second intervention period, from 49 / 61 participants) was 25 participants. Further, in data set [12] (14 participants), the “Duration of overall response (tumor burden reduction)” value is listed as 7.1 months. The “Reduction in tumor burden equal to or larger than 5%” value in data set [12] (at 8 weeks (2 cycles of treatment), % from 47 participants) was 30%.

`CCN(CC)CCNC(=O)c1c(C)[nH]c(/C=C2\C(=O)Nc3ccc(F)cc32)c1C` [Sunitinib]: the Serious adverse events in data set [14] (AM dose group, out of 54 participants) was 21 participants; in [14] (PM dose group, from 53 participants), 20 participants; in the data set on Renal Cell Carcinoma [15] it was 54.90%; in data set [3], 41.24%; in data set [5], 40.88%; in [16], 43.40%. Besides, the Serious adverse events is 37.82% in [17]; 37.76% in data set [18] (Sunitinib 37.5 mg group, 54 from 143 participants); 34.25% in [18] (Sunitinib 50 mg group, 50 from 146 participants).

In the case of `CO[C@H]1C[C@@H]2CC[C@@H](C)[C@@](O)(O2)C(=O)C(=O)N2CCCC[C@H]2C(=O)O[C@H]([C@H](C)C[C@@H]2CC[C@@H](OC(=O)C(C)(CO)CO)[C@H](OC)C2)CC(=O)[C@H](C)/C=C(\C)[C@@H](O)[C@@H](OC)C(=O)[C@H](C)C[C@H](C)/C=C/C=C/C=C/1C` [Temsirolimus], in [19], the “Median overall response duration” value was 11.1 months, the “Median progression free survival” value is listed as 5.6 months, the “Median time to treatment failure” value is reported as 3.7 months and the Median overall survival is listed as 10.9 months. In data set [19], the “Clinical benefit (complete, partial response or stable disease)” value is recorded as 34% and the “Complete or partial response” value is listed as 9.1%. In data set [19] (99 from 200 / 82 from 208 / 122 from 208 participants), the Serious adverse events is on record as 39.42%.

Take Interferon-α: in data set [19], the “Median overall response duration” value is 7.4 months, the “Median progression free survival” value is 3.2 months, the “Median time to treatment failure” value is recorded as 1.9 months and the Median overall survival is 7.3 months. Moreover, in data set [19], the “Clinical benefit (complete, partial response or stable disease)” value is recorded as 16.4% and the “Complete or partial response” value was 5.3%. In data set [19] (in vivo), the Serious adverse events is reported as 49.5%.
